The record followed here is ChEMBL document CHEMBL1154586, “Two new acetylenic derivatives and a new meroditerpenoid from a Taiwanese marine sponge Strongylophora durissima” (J Nat Prod, 2000).

This assay concerns NUGC. Nature of the assay: Cytotoxicity against human NUGC cells at 10 uM. Format: functional, cell-based.

Structures are written as SMILES. The source made the active and inactive calls. No cut-off for these calls is given here.

Consider `C#CC(O)/C=C/CCCCCCCCC/C=C\CCCCCCCCC/C=C/C(O)C#C` (configuration not stated), for which the outcome was Active. `C#CC(O)/C=C/CCCCCCCCCCCCC#CCCCCCCCCCCC#CC#CCO` (configuration not stated): the outcome was Active.
